How the values were obtained:
[1] = test system: patient's gastric cancer tissue; assay: In vivo imaging of Cy5.5-labeled peptide-expressing phages (IVIS spectrum, ROI values); set-up: species or system mouse; unit not given here; details: Cy5.5-labeled phage, tail vein injection, 2nd day
Experimental: (§1) Considering overcoming limitations that existing animal models transplanted with cultured cancer cells had, an ideal animal model of cancer similar to actual patient's cancer microenvironments is prepared. Then, to establish an animal model that can confirm influence of an irradiation-dependent cancer tissue, first, a mouse model transplanted with a cancer tissue that was extracted from an actual patient having gastric cancer was established. Regarding the establishment of such an animal model, the cancer tissue extracted from a patient was cultured in an NOD/SCID mouse. Once the cancer tissue was found in the NOD/SCID mouse, subculturing was carried out by using a Balb/c nude mouse, beginning from the next subculturing. In detail, after an NOD/SCID mouse was anesthetized via intraperitoneal injection of anesthetics, the cancer tissue was cut into pieces each having a size of 3×3 mm. Next, each of both flanks of the NOD/SCID mouse was transplanted with a piece of the cut cancer tissues, treated with a mixed solution of 100 μl of 100 IU/ml penicillin, 100 μg/ml streptomycin, 100 μg/ml gentamicin, and 2.5 μg/ml amphotericin B antibiotics, and then, sutured. The NOD/SCID mouse was recovered on a heating pad (for about 2 hours). Afterwards, the formation and growth of tumors were observed every week. When the cancer tissues grew to a size of 400-500 mm^3, the cancer tissues were separated and cut into pieces each having a size of 3×3 mm for subculturing. Next, for next subculturing, a nude mouse was anesthetized via intraperitoneal injection of anesthetics, and a piece of the cut cancer tissues was transplanted subcutaneously on the right thigh of the nude mouse. A transplantation site was changed from the flank to the both thighs so that irradiation can be locally done without affecting other organs during irradiation. That is, a mouse model in which a cancer tissue that underwent subculturing and was re-transplanted up to four times was formed was established. […] After having recovery time for no longer than 24 hours, in vivo peptide screening was performed. Here, as a control group in an irradiated population, a mouse model that was not irradiated among the same mouse models was used to screen a peptide.
(§2) In particular, 1 μg/μl of N-hydroxysuccinimide esters of Cy5.5 (Amersham) was added to 1 mL of bicarbonate buffer (pH 8.3) having the phage concentration of 10^11 plaque forming units (pfu), and then, in a condition where a dark environment was maintained, […] a phage-surface protein was linked to the Cy5.5 fluorescent probe at room temperature for 3 hours. That is, loop peptide-expressing phages to which the Cy5.5 fluorescent probe was linked were each obtained by precipitation with 170 μl of 20% (w/v) PEG 8000/2.5 M NaCl solution and purification. To determine a proportion of the Cy5.5 fluorescent probe linked to each of the finally obtained phage samples, an IVIS spectrum imaging system (Xenogen) was used for measurement, and region of interest (ROI) values were determined using the software program of a corresponding device. Accordingly, it was confirmed that the Cy5.5 fluorescent probe was linked to each of the phage samples at almost the same linking proportion.
(§3) After each of the prepared phages expressing the loop peptide was injected into the ratio-sensitive xenograft mouse model of Example 1 and the control group through the vein tail of the mouse, images were measured for 2 days immediately after the injection, thereby confirming images showing in vivo circulation of the peptide and the targeting of the peptide only in the cancer tissue while the targeting to other organs and tissues gradually disappeared. […] In addition, to verify which part of the cancer tissue was targeted by each of the loop peptide-expressing phages via ex vivo imaging, only the cancer tissue was separated and extracted, and the whole cancer tissue itself and the respective cancer tissue were subjected to fragmentation into several pieces. […]

[2] = test system: patient's gastric cancer tissue; assay: Ex vivo imaging of extracted cancer tissue (IVIS spectrum, ROI values); format: in vivo, mouse; set-up: unit not given here
Experimental: as §1, §2, §3

[3] = test system: patient's gastric cancer tissue; assay: Titering of phages eluted from extracted cancer tissue, relative to tissue weight; format: in vivo, mouse
Experimental: as §1
After each of the prepared phages expressing the loop peptide was injected into the ratio-sensitive xenograft mouse model of Example 1 and the control group through the vein tail of the mouse, images were measured for 2 days immediately after the injection, thereby confirming images showing in vivo circulation of the peptide and the targeting of the peptide only in the cancer tissue while the targeting to other organs and tissues gradually disappeared. […] In addition, to verify which part of the cancer tissue was targeted by each of the loop peptide-expressing phages via ex vivo imaging, only the cancer tissue was separated and extracted, and the whole cancer tissue itself and the respective cancer tissue were subjected to fragmentation into several pieces.
To compare targeting efficiency more accurately based on the results of FIGS. 5 and 6, the pieces of the extracted cancer tissue the pieces of the extracted cancer tissue were collected independently, and phages bound to the cancer tissues were eluted. The concentration of each of the eluted phages was measured according to titering, and due to different size and weight of the extracted cancer tissue, the weight of each cancer tissue was also measured in terms of establishing numerical standardization. In this regard, the amount of the identified phages was calculated relative to the weight of the cancer tissue. In addition, to more accurately quantify each imaging result, the in vivo imaging and the ex vivo imaging were confirmed by measuring ROI values that were determined using the IVIS spectrum (Xenogen) program, and the results thereof are shown in Table 2.

[4] = Non-irradiated population as control

Substance | in vivo ROI [1, 4] | ex vivo ROI [2, 4] | pfu/mg [3, 4] [pfu/mg] | in vivo ROI ([1]; Irradiated population (10 Gy)) | ex vivo ROI ([2]; Irradiated population (10 Gy)) | pfu/mg ([3]; Irradiated population (10 Gy)) [pfu/mg]
QRSLPSL [Peptide W2, 7-amino-acid loop peptide from non-irradiated population; tested as Cy5.5-labeled M13 phage expressing it] | 2.19 | 2.68 | 18.2 |  |  | 
RYVGTLF [Peptide P2, 7-amino-acid loop peptide from irradiated population; tested as Cy5.5-labeled M13 phage expressing it] |  |  |  | 9.05 | 38.83 | 6.3
TVRTSAD [Peptide P1, 7-amino-acid loop peptide from irradiated population; tested as Cy5.5-labeled M13 phage expressing it] |  |  |  | 16.44 | 70.66 | 25.3
NWGDRIL [Peptide W1, 7-amino-acid loop peptide from non-irradiated population; tested as Cy5.5-labeled M13 phage expressing it] | 1.86 | 2.08 | 11.8 |  |  | 
DVWHSAY [Peptide W3, 7-amino-acid loop peptide from non-irradiated population; tested as Cy5.5-labeled M13 phage expressing it] | 1.90 | 3.54 | 8.1 |  |  | 
NRGDRIL [Peptide P3, 7-amino-acid loop peptide from irradiated population; tested as Cy5.5-labeled M13 phage expressing it] |  |  |  | 19.83 | 77.85 | 18.6
Cy5.5 [reference compound] | 1.00 | 1.00 |  | 1.00 | 1.00 | 

Reference: patent US10627402B2, “Peptides for targeting gastric cancer, and medical use tehreof” (priority 2014, dated 2020)
